For test [1], the target named is T1, Serine/threonine-protein kinase PLK4 (Homo sapiens) (UniProt O00444).
T1 sequence (whole entry): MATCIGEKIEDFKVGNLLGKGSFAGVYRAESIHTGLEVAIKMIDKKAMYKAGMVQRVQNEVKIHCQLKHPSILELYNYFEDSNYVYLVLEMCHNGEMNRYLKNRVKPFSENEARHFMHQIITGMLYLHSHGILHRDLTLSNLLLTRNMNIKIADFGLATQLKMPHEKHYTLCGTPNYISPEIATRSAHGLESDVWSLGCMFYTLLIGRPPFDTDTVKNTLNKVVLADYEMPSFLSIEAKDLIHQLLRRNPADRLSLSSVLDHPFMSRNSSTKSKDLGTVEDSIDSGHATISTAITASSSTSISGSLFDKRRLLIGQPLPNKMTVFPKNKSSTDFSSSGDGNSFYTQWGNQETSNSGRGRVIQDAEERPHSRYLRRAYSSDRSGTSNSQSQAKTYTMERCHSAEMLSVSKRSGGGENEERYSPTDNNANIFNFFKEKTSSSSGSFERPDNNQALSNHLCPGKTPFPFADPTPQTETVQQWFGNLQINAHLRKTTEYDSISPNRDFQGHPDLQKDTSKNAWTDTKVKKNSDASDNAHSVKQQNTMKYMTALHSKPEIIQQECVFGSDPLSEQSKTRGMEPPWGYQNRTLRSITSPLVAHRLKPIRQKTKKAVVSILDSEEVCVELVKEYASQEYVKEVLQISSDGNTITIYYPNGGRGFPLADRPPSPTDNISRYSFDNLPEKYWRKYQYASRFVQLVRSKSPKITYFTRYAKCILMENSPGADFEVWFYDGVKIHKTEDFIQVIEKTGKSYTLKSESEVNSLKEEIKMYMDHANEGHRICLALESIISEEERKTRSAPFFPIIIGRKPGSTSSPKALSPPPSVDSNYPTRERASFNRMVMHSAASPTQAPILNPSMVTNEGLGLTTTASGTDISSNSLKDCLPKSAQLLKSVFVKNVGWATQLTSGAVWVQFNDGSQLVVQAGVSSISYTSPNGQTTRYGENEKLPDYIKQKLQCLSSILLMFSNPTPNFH
Briefly: Selectivity interaction (LanthaScreen Eu Kinase Binding Assay) EUB0001632a PLK4. The settings on record: at 10 µM. Background: In TR-FRET formats the signal depends on donor and acceptor labels being close together.

Test [2] addresses Phosphatidylinositol 4-phosphate 5-kinase type-1 alpha (Homo sapiens) (UniProt Q99755). Briefly: Selectivity interaction (KinomeScan (DiscoverX)) EUB0000607a PIP5K1A. Conditions: at 10 µM.
Test [3] deals with Serine/threonine-protein kinase PRP4 homolog (Homo sapiens) (UniProt Q13523). Briefly: Selectivity interaction (ActivX KiNativ screen (kinase selectivity in THP-1 cell lysates)) EUB0000639a PRPF4. The class given is subcellular. Conditions: lysate, at 1 µM.
Sequence of Serine/threonine-protein kinase PRP4 homolog (Homo sapiens) (Q13523 whole entry): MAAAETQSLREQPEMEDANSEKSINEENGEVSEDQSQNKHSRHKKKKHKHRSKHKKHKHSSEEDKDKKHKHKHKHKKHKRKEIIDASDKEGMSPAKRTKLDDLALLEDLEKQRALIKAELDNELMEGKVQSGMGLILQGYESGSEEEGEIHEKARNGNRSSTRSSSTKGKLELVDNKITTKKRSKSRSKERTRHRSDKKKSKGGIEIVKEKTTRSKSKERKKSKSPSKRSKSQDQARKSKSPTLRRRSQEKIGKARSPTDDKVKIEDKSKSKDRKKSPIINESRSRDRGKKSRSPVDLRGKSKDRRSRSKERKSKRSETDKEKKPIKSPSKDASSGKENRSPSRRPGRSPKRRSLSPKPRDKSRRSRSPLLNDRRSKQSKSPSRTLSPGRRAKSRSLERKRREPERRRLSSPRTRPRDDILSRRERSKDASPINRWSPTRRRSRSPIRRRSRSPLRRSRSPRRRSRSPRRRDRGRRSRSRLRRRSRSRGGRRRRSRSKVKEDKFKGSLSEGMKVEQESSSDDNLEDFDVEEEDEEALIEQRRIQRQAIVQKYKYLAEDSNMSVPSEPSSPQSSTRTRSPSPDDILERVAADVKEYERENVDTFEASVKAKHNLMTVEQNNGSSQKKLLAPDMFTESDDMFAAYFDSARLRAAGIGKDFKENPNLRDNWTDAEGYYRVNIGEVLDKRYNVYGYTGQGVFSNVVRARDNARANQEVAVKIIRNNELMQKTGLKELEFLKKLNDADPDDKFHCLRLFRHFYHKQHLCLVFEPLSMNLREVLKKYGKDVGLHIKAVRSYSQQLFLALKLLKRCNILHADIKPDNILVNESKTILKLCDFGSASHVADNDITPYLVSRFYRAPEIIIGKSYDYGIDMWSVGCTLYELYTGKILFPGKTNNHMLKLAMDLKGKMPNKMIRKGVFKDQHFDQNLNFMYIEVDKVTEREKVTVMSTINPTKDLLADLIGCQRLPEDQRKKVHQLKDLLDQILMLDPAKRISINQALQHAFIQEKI
The target in test [4] is Mitogen-activated protein kinase 1 (Homo sapiens, UniProt P28482). Briefly: Selectivity interaction (KinomeScan (DiscoverX)) EUB0001049a MAPK1. The settings on record: at 1 µM.
Sequence of Mitogen-activated protein kinase 1 (P28482 whole entry, the tested form may be a part): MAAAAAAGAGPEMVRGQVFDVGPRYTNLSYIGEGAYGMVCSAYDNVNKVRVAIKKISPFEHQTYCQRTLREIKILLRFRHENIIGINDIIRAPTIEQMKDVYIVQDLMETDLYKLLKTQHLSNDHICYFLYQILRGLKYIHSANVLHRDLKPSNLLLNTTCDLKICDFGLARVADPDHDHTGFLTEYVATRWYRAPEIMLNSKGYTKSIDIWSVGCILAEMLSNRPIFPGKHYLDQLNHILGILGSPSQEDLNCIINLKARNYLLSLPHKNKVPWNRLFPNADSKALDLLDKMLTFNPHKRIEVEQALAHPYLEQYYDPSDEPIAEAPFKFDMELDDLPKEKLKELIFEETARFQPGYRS
The target of test [5] is T2, Discoidin domain-containing receptor 2 (Homo sapiens) (UniProt Q16832).
T2 sequence (whole entry): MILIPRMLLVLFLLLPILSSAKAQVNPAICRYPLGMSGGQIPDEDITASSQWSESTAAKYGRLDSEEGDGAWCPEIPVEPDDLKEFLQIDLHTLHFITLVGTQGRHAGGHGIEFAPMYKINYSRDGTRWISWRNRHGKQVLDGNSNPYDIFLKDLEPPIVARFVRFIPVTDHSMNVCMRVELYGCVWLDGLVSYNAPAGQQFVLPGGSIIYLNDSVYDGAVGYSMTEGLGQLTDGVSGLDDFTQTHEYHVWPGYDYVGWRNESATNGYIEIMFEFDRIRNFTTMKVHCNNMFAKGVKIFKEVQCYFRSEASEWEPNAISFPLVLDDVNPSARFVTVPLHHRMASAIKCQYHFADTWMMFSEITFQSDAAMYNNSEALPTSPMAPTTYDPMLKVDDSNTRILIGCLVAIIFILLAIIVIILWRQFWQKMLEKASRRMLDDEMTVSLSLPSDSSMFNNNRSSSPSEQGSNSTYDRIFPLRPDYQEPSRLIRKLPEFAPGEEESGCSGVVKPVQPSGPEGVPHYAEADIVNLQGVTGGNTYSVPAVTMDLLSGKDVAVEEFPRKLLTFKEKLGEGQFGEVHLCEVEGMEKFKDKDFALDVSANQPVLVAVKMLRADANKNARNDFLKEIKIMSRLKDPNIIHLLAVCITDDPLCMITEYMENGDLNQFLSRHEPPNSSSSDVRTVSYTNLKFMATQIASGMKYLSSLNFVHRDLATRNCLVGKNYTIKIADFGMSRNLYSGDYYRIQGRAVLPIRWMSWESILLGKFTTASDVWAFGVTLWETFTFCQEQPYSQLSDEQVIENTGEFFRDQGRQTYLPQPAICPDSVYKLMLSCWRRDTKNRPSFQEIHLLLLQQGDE
Briefly: Selectivity interaction (KinomeScan (DiscoverX)) EUB0000092b DDR2. The settings on record: at 10 µM.

In test [6] the target is Proto-oncogene tyrosine-protein kinase Src (Homo sapiens, UniProt P12931). Briefly: Selectivity interaction (KinomeScan (DiscoverX)) EUB0001868a SRC. The settings on record: at 1 µM.
Sequence of Proto-oncogene tyrosine-protein kinase Src (P12931 2-536 limits assumed): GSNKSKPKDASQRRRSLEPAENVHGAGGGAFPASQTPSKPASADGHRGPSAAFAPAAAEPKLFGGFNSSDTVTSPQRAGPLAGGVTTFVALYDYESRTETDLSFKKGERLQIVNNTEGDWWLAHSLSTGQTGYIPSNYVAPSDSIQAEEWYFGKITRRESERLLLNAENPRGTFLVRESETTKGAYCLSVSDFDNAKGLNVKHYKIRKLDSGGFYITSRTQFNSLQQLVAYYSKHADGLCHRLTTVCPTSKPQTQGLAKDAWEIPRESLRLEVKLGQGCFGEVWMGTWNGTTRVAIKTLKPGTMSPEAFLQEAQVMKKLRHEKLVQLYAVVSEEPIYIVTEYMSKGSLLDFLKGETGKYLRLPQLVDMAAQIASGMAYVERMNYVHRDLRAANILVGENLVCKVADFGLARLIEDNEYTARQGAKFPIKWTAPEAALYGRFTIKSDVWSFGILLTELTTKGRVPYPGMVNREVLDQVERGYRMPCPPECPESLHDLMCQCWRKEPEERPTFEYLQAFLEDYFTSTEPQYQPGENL
The target of test [7] is Tyrosine-protein kinase FRK (Homo sapiens) (UniProt P42685). Conditions: at 10 µM.
Sequence of Tyrosine-protein kinase FRK (Homo sapiens) (P42685 whole entry): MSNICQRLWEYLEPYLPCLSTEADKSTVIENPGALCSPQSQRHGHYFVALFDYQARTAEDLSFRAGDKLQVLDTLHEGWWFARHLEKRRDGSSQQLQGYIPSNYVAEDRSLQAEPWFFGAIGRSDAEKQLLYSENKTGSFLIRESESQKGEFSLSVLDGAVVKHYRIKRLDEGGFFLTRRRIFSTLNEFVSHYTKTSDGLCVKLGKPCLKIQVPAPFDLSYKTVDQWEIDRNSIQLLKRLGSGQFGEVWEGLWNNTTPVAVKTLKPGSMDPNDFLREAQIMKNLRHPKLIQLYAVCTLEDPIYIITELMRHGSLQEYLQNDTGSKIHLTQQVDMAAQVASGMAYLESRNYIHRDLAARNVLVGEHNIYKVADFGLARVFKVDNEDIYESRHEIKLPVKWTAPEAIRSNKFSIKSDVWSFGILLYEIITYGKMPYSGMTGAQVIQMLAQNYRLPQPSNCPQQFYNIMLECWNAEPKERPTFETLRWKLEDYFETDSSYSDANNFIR

Sequence of Phosphatidylinositol 4-phosphate 5-kinase type-1 alpha (Homo sapiens) (Q99755 whole entry): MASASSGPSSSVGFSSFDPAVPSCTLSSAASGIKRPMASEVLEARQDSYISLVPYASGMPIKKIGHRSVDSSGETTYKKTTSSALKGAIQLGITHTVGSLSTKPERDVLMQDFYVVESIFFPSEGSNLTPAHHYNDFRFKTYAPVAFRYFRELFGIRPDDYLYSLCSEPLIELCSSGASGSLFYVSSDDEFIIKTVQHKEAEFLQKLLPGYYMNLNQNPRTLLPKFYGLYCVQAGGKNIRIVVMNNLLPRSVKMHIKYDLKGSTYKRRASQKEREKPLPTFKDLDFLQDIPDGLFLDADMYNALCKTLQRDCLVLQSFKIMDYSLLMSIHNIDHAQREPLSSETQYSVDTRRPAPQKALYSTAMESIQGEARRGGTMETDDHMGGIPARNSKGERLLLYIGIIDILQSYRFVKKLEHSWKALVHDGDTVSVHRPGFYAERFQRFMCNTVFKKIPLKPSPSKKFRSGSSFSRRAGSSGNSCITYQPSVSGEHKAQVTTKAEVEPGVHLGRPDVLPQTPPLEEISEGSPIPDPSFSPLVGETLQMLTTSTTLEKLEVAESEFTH

Consider `Cn1cc(-n2cnc3c(NCc4nc5cc(Cl)c(Cl)cc5[nH]4)nc(N4CCOCC4)nc32)cn1`, for which, in test [1], the % of inhibition stood at 0.376%.
In turn, `CNC(=O)Nc1ccc(-c2nc(N3CC4CCC(C3)O4)c3cnn(C4CCC5(CC4)OCCO5)c3n2)cc1` displayed a % of control in test [2] of 84%.
As for `CC[C@@H]1[C@H](F)C(=O)N[C@@H]1COc1nccc2cc(C(N)=O)c(OC)cc12` [ZIMLOVISERTIB], in test [3], the % of inhibition was found to be 67.7%.
On to `COc1cc(Nc2nc(C)cc(-c3cnn4nc(OC)ccc34)n2)cc(C(F)(F)F)c1`, for which the % of control in test [4] came out at 100%.
As for `CCC(=O)N1CCN(c2ccc(-n3c(=O)ccc4cnc5ccc(-c6cnc7ccccc7c6)cc5c43)cc2C(F)(F)F)CC1`, the % of control in test [5] amounted to 100%.
`Cc1cc(-c2ccnc(Nc3cnn(C)c3)n2)ccc1CNC(=O)N1CC(OC(C)C)C1` showed a % of control in test [6] of 31%.
Take `COCC(=O)NC/C=C/c1ccc2ncnc(Nc3ccc(Oc4ccc(C)nc4)c(C)c3)c2c1` [CP-724714]: in test [7], the % of control was determined as 100%.

(Values after ChEMBL document CHEMBL5465560, “Selectivity Literature for EUbOPEN Chemogenomic Library” (2024).)
